Patent US7098307B2, “Neo-tryptophan” (Mayo Foundation for Medical Education and Research, priority 1998, dated 2006)
Where two headings read alike, the source gives them in different places. Square brackets hold non-standard residues; d marks the D form. Peptide text beside a SMILES is read from it. Ala(indol-4-yl) = N[C@@H](Cc1cccc2[nH]ccc12)C(=O)O; NMeR = CN[C@@H](CCCNC(=N)N)C(=O)O; Tle = CC(C)(C)[C@H](N)C(=O)O

Tests used:
[1] = Hot plate test (antinociception, % MPE) in rats; details: for induction of antinociception (hot plate): intraperitoneal administration (NT64L 1 mg/kg); for ED50 % MPE: intraperitoneal
rat NTR1 [2] = target: T1, rat NTR1 (Rattus norvegicus, UniProt P20789); experiment: PI turnover ([3H]IP1) in intact CHO-K1 cells, rat NTR1; type: cell-based
T1 construct: expressed in transfected cells; host or cells: CHO-K1
Procedure: (§1) To measure PI turnover, intact CHO-K1 cells were harvested at about 80% confluency. Cells were detached from the petri plates by removal of culture medium followed by incubation of the cellular monolayer for 20 minutes at 37° C. with gentle shaking in a modified Puck's D1 solution containing 2 mM EGTA. […] Briefly, intact CHO cells were prelabeled with D-myo-[^3H]inositol (18.3 Ci/mmol) in the presence of lithium chloride (final concentration, 10 mM). […] For the experiments described herein, the stimulation time was 30 minutes, and the number of CHO cells per assay tube was 1.5×10^5.

human NTR1 [3] = target: T2, human NTR1 (Homo sapiens, UniProt P30989); experiment: Competition binding with [3H]NT, membranes of CHO-K1 cells transfected with human NTR1
T2 construct: expressed in transfected cells; host or cells: CHO-K1
Procedure: (§2) CHO-K1 cells were stably transfected with nucleic acid encoding either the human NTR1 or the rat NTR1, and cultured in 150 mm petri plates with 35 mL of Dulbecco-modified Eagle's medium containing 100 μM minimal essential medium nonessential amino acids (GIBCO) supplemented with 5% (v/v) FetalClone II bovine serum product (Hyclone Labs, Logan, Utah). CHO cells (subculture 9–19) were harvested at confluency. Briefly, the medium from each plate was removed by aspiration, and the cells washed with 6 mL of 50 mM Tris-HCl (pH 7.4) and resuspended in 5–10 mL of Tris-HCl by scraping the cells with a rubber spatula. The resuspended cells were placed into a centrifuge tube and collected by centrifugation at 300× g for five minutes at 4° C. in a GPR centrifuge (Beckman Instruments, Fullerton, Calif.). The cellular pellet (in 50 mM Tris-HCl, 1 mM EDTA, pH 7.4) was stored at […] until radioligand binding was performed.
(§3) The supernatant was decanted and discarded, and the cellular pellet was resuspended in 2 mL of Tris-HCl, 1 mM EDTA (pH 7.4) followed by homogenization with a Brinkmann Polytron at setting 6 for ten seconds. Centrifugation was repeated as above and the supernatant was decanted and discarded. The resulting final cellular pellet was resuspended in 50 mM Tris-HCl, lmM EDTA, 0.1% bovine serum albumin, and 0.2 mM bacitracin.
(§4) Incubation was at 20° C. for 30 minutes. Each reaction was terminated by addition of cold 0.9% NaCl (5×1.5 mL) followed by rapid filtration through a GF/B filter strip that had been pretreated with 0.2% polyethylenimine.

human NTR1 [4] = target: T2, human NTR1; experiment: PI turnover ([3H]IP1) in intact CHO-K1 cells, human NTR1; type: cell-based
Procedure: as §1

[5] = Degradation in human plasma (HPLC peak area); type: in vitro ADME; details: 25% plasma, 37° C., 0.5 mg/mL polypeptide; for half-life at 0.5 mg/mL: human, read-out: half-time, Plasma Human (converted)
Excerpt: (§5) For the degradation studies, data were plotted in linear form as a semi-log plot with SigmaPlot for Windows Version 4.00. Linear regression on these plots provided the parameters used to calculate the half-time (t1/2) for degradation of each polypeptide. The correlation coefficient (R) for the linear regression was taken as a measure of the goodness-of-fit.

[6] = Body temperature (hypothermia) in rats; details: for Peak BT change / time of Peak BT change: rats; for induction of hypothermia: intraperitoneal administration (NT64L 1 mg/kg)
[7] = Degradation in rat intestinal preparation; type: in vitro ADME; details: pH 7.4, 37° C., read-out: half-time, Rat Intestinal Preparation (converted)
Procedure: For intestinal preparations, rats were sacrificed by decapitation, and the small intestines removed. The tissue was washed with ice-cold PBS (10 mM, pH 7.4). About […] of intestinal tissue was added to about 10 mL of PBS and homogenized using a Brinkman polytron homogenizer (setting 6). After homogenization, 10 mL of PBS was added to 10 mL of the intestinal homogenate. […] The supernatant was removed and stored at −20° C. until testing. Immediately before incubation with the polypeptide, the intestinal preparation was filtered through a 0.2 μm filter. Testing procedures were similar to those for the plasma tests.
as §5

5HT2A receptor = 5HT2A receptor (Homo sapiens, UniProt P28223); experiment: Competitive binding with [3H]ketanserin, human brain tissue; details: for competition with labeled ketanserin for binding at the 5HT2A receptor: human brain tissue
dopamine D2 receptors = target: T3, dopamine D2 receptors (Homo sapiens, UniProt P14416); experiment: Radiolabeled competitive binding, human brain tissue, dopamine
T3 construct: Human brain tissue; from tissue; host or cells: human brain tissue

rat NTR1 [8] = target: T1, rat NTR1; experiment: Competition binding with [3H]NT, membranes of CHO-K1 cells transfected with rat NTR1
Procedure: as §2, §3, §4

adrenergic α1 receptors = experiment: Radiolabeled competitive binding, human brain tissue, adrenergic α1
[9] = Degradation in rat plasma (HPLC peak area); type: in vitro ADME; details: 25% plasma, 37° C., 0.5 mg/mL polypeptide, read-out: half-time, Plasma Rat (converted)
Excerpt: as §5

α2-adrenergic receptors = experiment: Radiolabeled competitive binding, human brain tissue, adrenergic α2
Muscarinic = experiment: Radiolabeled competitive binding, human brain tissue, muscarinic

CN[C@@H](CCCNC(=N)N)C(=O)N[C@@H](CCCCN)C(=O)N1CCC[C@H]1C(=O)N[C@@H](Cc1c[nH]c2ccccc12)C(=O)N[C@H](C(=O)N[C@@H](CC(C)C)C(=O)O)C(C)(C)C [Eisai, reference compound] (H-[NMeR]KPW[Tle]L-OH; N-terminus and C-terminus assumed)
time of Peak % MPE ([1]; 1 mg/kg intraperitoneal, rats): 90 min
induction of antinociception (hot plate) [1]: did induce
ED50 % MPE ([1]; @ 30 min): 0.42 mg/kg
ED50 % MPE ([1]; @ 90 min): 0.08 mg/kg
EC50 (rat NTR1 [2]): 3.1 nM
weaker at the human NT receptor compared to binding affinity at the rat receptor (human NTR1 [3]; binding): ~20 fold
EC50 (human NTR1 [4]): 300 nM
weaker at the human NT receptor than at the rat NT receptor, PI turnover (human NTR1 [4]): ~100 fold
half-life at 0.5 mg/mL [5]: 460 h
Peak BT change ([6]; 1 mg/kg intraperitoneal): −2.9 @ ° C.
time of Peak BT change ([6]; 1 mg/kg intraperitoneal): 60 min
induction of hypothermia [6]: did induce
ED50 BT ([6]; intraperitoneal, @ 30 min): 0.26 mg/kg
ED50 BT ([6]; intraperitoneal, @ 90 min): 0.12 mg/kg
peak reduction in body temperature ([6]; intraperitoneal, dose not restated): about 3 °C
half-life [7]: 22 h

CC(C)C[C@H](NC(=O)[C@@H](NC(=O)[C@H](Cc1cccc2[nH]ccc12)NC(=O)[C@@H]1CCCN1C(=O)[C@H](CCCNC(=N)N)NC(=O)[C@H](N)CCCCN)C(C)(C)C)C(=O)O [NT66L] (H-[dK]RP[Ala(indol-4-yl)][Tle]L-OH; N-terminus and C-terminus assumed)
Peak % MPE ([1]; 1 mg/kg intraperitoneal, rats): 100% @
time of Peak % MPE ([1]; 1 mg/kg intraperitoneal, rats): 120 min
Peak % MPE ([1]; 5 mg/kg intraperitoneal, rats): 100% @
time of Peak % MPE ([1]; 5 mg/kg intraperitoneal, rats): 330 min
induction of antinociception (hot plate) [1]: did induce
ED50 % MPE ([1]; @ 30 min): 0.04 mg/kg
ED50 % MPE ([1]; @ 60 min): 0.02 mg/kg
peak % MPE value ([1]; oral, 20 mg/kg): 40%
time of Peak % MPE ([1]; oral, 20 mg/kg): 60 min
Kd (5HT2A receptor): 8700 nM
competition with labeled ketanserin for binding at the 5HT2A receptor (5HT2A receptor): found to compete
Kd (dopamine D2 receptors): 56000 nM
EC50 (rat NTR1 [2]): 1.9 ± 0.4 nM
Kd (human NTR1 [3]): 3.7 ± 0.4 nM
EC50 (human NTR1 [4]): 10 nM
half-life at 0.5 mg/mL [5]: 170 h
Peak BT change ([6]; 1 mg/kg intraperitoneal): −3.0 @ ° C.
time of Peak BT change ([6]; 1 mg/kg intraperitoneal): 240 min
Peak BT change ([6]; 5 mg/kg intraperitoneal): −5.0 @ ° C.
time of Peak BT change ([6]; 5 mg/kg intraperitoneal): 120 min
induction of hypothermia [6]: did induce
ED50 BT ([6]; intraperitoneal, @ 30 min): 0.45 mg/kg
ED50 BT ([6]; intraperitoneal, @ 60 min): 0.18 mg/kg
peak reduction in body temperature (change) ([6]; oral, 20 mg/kg): −1.4 °C
time of peak reduction in body temperature ([6]; oral, 20 mg/kg): 30 min
Kd (rat NTR1 [8]): 0.85 ± 0.09 nM
Kd (adrenergic α1 receptors; read-out: Kd adrenergic α1): 38000 nM
half-life at 0.5 mg/mL [9]: 350 h

CC[C@H](C)[C@H](NC(=O)[C@H](Cc1cccc2[nH]ccc12)NC(=O)[C@@H]1CCCN1C(=O)[C@H](CCCNC(=N)N)NC(=O)[C@H](N)CCCCN)C(=O)N[C@@H](CC(C)C)C(=O)O [NT67L] (H-[dK]RP[Ala(indol-4-yl)]IL-OH; N-terminus and C-terminus assumed)
Kd (α2-adrenergic receptors): > 100000 nM
Peak % MPE ([1]; 1 mg/kg intraperitoneal, rats): 70% @
time of Peak % MPE ([1]; 1 mg/kg intraperitoneal, rats): 90 min
induction of antinociception (hot plate) [1]: did induce
competition with labeled ketanserin for binding at the 5HT2A receptor (5HT2A receptor): found to compete
Kd (dopamine D2 receptors): > 100000 nM
Kd (human NTR1 [3]): 0.61 ± 0.06 nM
reduction in binding affinity compared to NT64L (human NTR1 [3]; NT receptor binding): about six fold lower
Kd (Muscarinic): > 100000 nM
EC50 (human NTR1 [4]): 0.83 nM
half-time, Plasma Human [5]: about 96 hours
half-life at 0.5 mg/mL [5]: 96 h
Peak BT change ([6]; 1 mg/kg intraperitoneal): −1.8 @ ° C.
time of Peak BT change ([6]; 1 mg/kg intraperitoneal): 120 min
induction of hypothermia [6]: did induce
Kd (rat NTR1 [8]): 0.21 ± 0.02 nM
half-life [7]: 0.77 h
Kd (adrenergic α1 receptors; read-out: Kd adrenergic α1 receptors): 6900 nM
half-life at 0.5 mg/mL [9]: 130 h
